Data reported in a melting point compilation (Tetko et al.; mined from patent text by program, amines drawn as free bases though some values may be those of a salt).

| SMILES | melting point [°C] |
| --- | --- |
| O=S(=O)(Nc1ccccc1OCc1ccc2ccccc2n1)c1ccc(Cl)cc1 | 129 to 130 |
| O=[N+]([O-])c1cc2nccnc2cc1Sc1cccc2cnccc12 | 222 to 225 |
| CNc1nc(C(=O)c2ccc([N+](=O)[O-])c(OC)c2)n2ccccc12 | 208 |
| Cc1cccc(-c2n[nH]cc2-c2ccc(F)c(-c3ccc(N4CCOCC4)cn3)c2)n1 | 88 to 90 |
| CCOC(=O)CCCN=c1sc2ccccc2s1 | 35 to 36 |
| CCCOC1CCC(=O)N1 (stereo not given) | 52 to 54 |
| COc1ccc(NS(=O)(=O)c2ccc([N+](=O)[O-])cc2[N+](=O)[O-])cc1 | 115 to 116 |
| CCCCCS(=O)(=O)NC(=O)c1ccc2nc(C)n(Cc3ccc(N(C)C(=O)C(C)(C)C)cc3Cl)c2n1 | 207 to 208 |
| CS(=O)(=O)NC1CCN(C(=O)Cn2nc(-c3ccncc3)cc2Cc2ccc(F)cc2)CC1 | 128 to 139 |
| CC(C)Oc1ccc2c(c1)OC(C(F)(F)F)C(C(=O)O)=C2 (stereo not given) | 161 to 163 |
| COc1cc(CC(=O)Nc2ccc(C3CN(C(=O)c4ccccc4)CC3C(=O)O)cc2)ccc1NC(=O)Nc1ccccc1C (stereo not given) | 248 |
| FC(F)(F)Oc1ccc(C=CC(C=Cc2ccc(OC(F)(F)F)cc2)=NNC2=NCCCN2)cc1 | 140 to 142 |
| ClCc1c2ccccc2c(CCl)c2ccccc12 | 238 to 243 |
| O=C(CC1(O)CCC1)N[C@H]1CC[C@H](CCN2CCN(c3nccc4c3OCC4)CC2)CC1 | 155 |
| C=C(c1ccc(Cl)cc1)c1ccc(NC(=O)OC(C)(C)C)c(C)c1 | 102 to 104 |
| CCOC1=CC2=CCC3C4CCC(=O)C4(C)CCC3C2(C)CC1 (stereo not given) | 146 to 149 |
| CN1CCC(NC(=O)c2cccc3nc(-c4ccccc4)oc23)CC1 | 209 to 210 |
| CN1C(=O)C(c2cccc(Br)c2)(c2ccc(OC(F)F)c(C3CC3)c2)N=C1N (stereo not given) | 85 to 87 |
| CCC(=O)c1ccc(OCCCCCCCc2cc(C)no2)cc1 | 61 |
| CCc1ccccc1NC(=O)c1ccccc1CN1C(=O)C2(COc3cc4c(cc32)CCO4)c2ccccc21 (stereo not given) | 184 to 186 |
| CNC(=O)NN(CC(=O)OC)c1ccccc1 | 122 |
| CN(C)c1nc(=O)c2ccccc2n1Cc1ccc(F)cc1 | 160 to 169 |
| CCN(CC)C(=O)C(C)n1cc(C)c(-c2ccccc2)n1 (stereo not given) | 55 to 57 |
| CCC(CC)n1cc(Cl)nc(N2CCc3cc(Br)cc(Cl)c32)c1=O | 156 to 157 |
| CN1CCC(c2c[nH]c3ccc(NC(=O)c4ccc(Cl)cc4Cl)nc23)CC1 | 151 to 152 |

| SMILES | melting point [°C] |
| --- | --- |
| CCOC(=O)c1cn2c(Cl)cccc2n1 | 143 to 145 |
| OCc1cccc(-c2cccc(-c3cn([C@H]4CN5CCC4CC5)nn3)c2)c1 | 201 |
| COc1ccc(NC(=O)Cn2c3c(c4c(Cl)c(Cl)ccc42)CCN(C(=O)OC(C)(C)C)CC3)cc1 | 143 to 144 |
| CC1(C)CNc2cc(C(F)(F)F)ccc2C1=O | 121 to 122 |
| COc1ccc2[nH]c(C(N)=O)cc2c1 | 204 to 205 |
| COc1ccccc1C=Cc1nc2c([nH]1)c(=O)n(C)c(=O)n2C | > 300 |
| O=C(Cc1ccc(Cl)c([N+](=O)[O-])c1)N[C@H]1C[C@H](C(=O)O)Nc2cc(Cl)cc(Cl)c21 (relative stereo) | 233 to 235 |
| COC(=O)c1cc(I)c(C(F)(F)F)cc1NC(C)=O | 96 to 98 |
| Sc1cccc(CN2CCCCC2)c1 | 121 to 123 |
| CC1CC(=O)NN=C1c1ccc(C(=O)OC2CCCC2)cc1 (stereo not given) | 120 to 122 |
| CC(C)Cn1c(C(=O)O)c(-c2ccc(Cl)cc2)c2cc(OCc3ccccc3)ccc2c1=O | 200 to 201 |
| CCCCn1c(=O)c2c(NCC)n[nH]c2n(Cc2ccc(OC)cc2)c1=O | 234 to 236 |
| Cn1c(=O)nc(N)c2ccccc21 | 252 to 262 |
| NCCn1cnc(-c2ccccc2)c1-c1ccccc1 | 96 to 98 |
| O=C1c2cc3nnn(CC4(c5cccc(F)c5)CC4)c(=O)c3cc2OC2CCCN12 (stereo not given) | 162 to 163 |
| CCOC(=O)Nc1cc(N(C(=O)OCC)S(=O)(=O)CC)c(Br)cc1F | 142 to 143 |
| CCCCn1c(-c2ccc(OC)cc2)nc2c3ccccc3ccc21 | 99.5 to 100 |
| Clc1ccc(C(=C2SCCCS2)C2CC2)cc1 | 91 to 95 |
| O=C1CCC(O)(c2ccc(Cl)c(Cl)c2)CN1Cc1ccc(F)cc1 (stereo not given) | 146 |
| CCOCn1c(Oc2ccccc2)c(CC)c(=O)[nH]c1=O | 130 to 131 |
| CC(C)N(C(=O)CN1C(=O)C(C)(CC(=O)Nc2ccccc2)C(=O)N(c2ccccc2)c2ccccc21)c1ccccc1 (stereo not given) | 228 to 229 |
| COc1ccc(C(O)(c2ccc3c(c2)C(c2cccc(Cl)c2)Nc2nnnn2-3)c2cncn2C)cc1 (stereo not given) | 220 |
| CONC(c1ccccc1)c1cc(C(C)(C)C)c(O)c(C(C)(C)C)c1 (stereo not given) | 135 to 137 |
| COC(=O)c1ccccc1NC(=O)N1CCc2cc(S(=O)(=O)N3CCN(c4cccc(Cl)c4)CC3)ccc21 | 230 |
| COc1ccc(C2=NN(c3ccccc3)C(c3ccc([N+](=O)[O-])cc3)C2)cc1 (stereo not given) | 168 to 173 |

| SMILES | melting point [°C] |
| --- | --- |
| COc1ccc(C(=O)Nc2ccc(C(C)(C)CNC(=O)c3nn(C)cc3Br)cc2)cc1OC | 112 to 113 |
| CCOC(=O)N(CC(=O)NCCc1ccc(OC)c(OC)c1)c1cccc(C(N)=O)c1 | 104 to 105 |
| COc1ccc2[nH]cc3c2c1[C@@]1(C)OCCN(C)[C@@H]1C3 (relative stereo) | 200 to 202 |
| c1ccc(Cc2ccccc2Cc2ccccc2)cc1 | 61 to 67 |
| CCCc1ccnc(C(=O)OCC)c1N | 93 to 96 |
| Oc1c(-c2ccc(F)cc2)nn2ccccc12 | 178 to 179 |
| N#Cc1c(N)nc2ccc(N3CCN(Cc4ccccc4)CC3)cc2c1Cl | 206 |
| Cc1nc2ccc3c(c2o1)OC(CN1C2CCC1CC(O)(c1ccc4ccccc4c1)C2)CO3 (stereo not given) | 192 to 195 |
| COc1ccc2c(c1)S(=O)(=O)N(C(C)C)C2=O | 188 |
| Cc1cccc(NC(=O)C2=C(O)c3ccccc3N(c3ccccc3)C2)n1 | 74 to 77 |
| COc1cc2nc(N3CCN(C(=O)c4ccco4)CC3)[nH]c2cc1OC | 143 to 145 |
| Cc1cc2ncc(-c3ccc(C(C)(C)C)cc3)c(N)n2n1 | 218 |
| COc1cc(C(=O)N2CC(O)CC2C(N)=O)cc(OC)c1OC (stereo not given) | 172 |
| O=c1ccc2cc(OCc3cn(-c4ccccc4Cl)nn3)ccc2o1 | 164 to 166 |
| CCc1c(C(=O)OC(C)C)ncc2[nH]c3ccc4nc(C)sc4c3c12 | 239 to 240 |
| Cc1cc(C#CC2CC2)cc(C)c1Oc1ccc(N)c(Nc2ccc(C#N)cc2)n1 | 82 to 85 |
| COc1cc(C#N)ccc1-c1cc(-c2cccc(C#N)c2)on1 | 202 to 204 |
| COc1cc(C#N)ccc1C(Br)Br | 78 to 79 |
| COc1ccc(C=O)c(Cl)c1O | 204 to 206 |
| COc1ccc(CN=C(Cc2ccccc2)N2CC3C(=O)CCC(c4ccccc4)(c4ccccc4)C3C2)cc1 (stereo not given) | 158 |
| COc1ccc(C=NNc2ccc(S(N)(=O)=O)cc2)cc1 | 228 to 231 |
| CCn1ncc2c3onc(-c4cccc(F)c4)c3cnc21 | 136 to 137 |
| CCc1cc(N)c(I)c(CC)n1 | 72 to 74 |
| Nc1nc(-c2cccc(C(F)(F)F)c2)nc2nc(-c3ccco3)nn12 | 296 to 298 |
| CCOC(=O)COc1ccc([N+](=O)[O-])c(C=C2NC(=O)NC2=O)c1 | 268 to 270 |

| SMILES | melting point [°C] |
| --- | --- |
| COc1cc2c(c(C(N)=O)c1OC)CCNCC2c1ccccc1 (stereo not given) | 178 to 180 |
| CN1CCN(c2cc3c(Cl)cccc3c(=O)[nH]2)CC1 | 230 to 231 |
| CCCN(Cc1ccc(-c2ccccc2C(=O)C(=O)O)cc1)c1ncccc1C(=O)O | 179 to 180 |
| CCC(=O)OC1=CC(=O)CC(NC(=O)N(C)C)C1 (stereo not given) | 69 to 74 |
| Cn1cc(Cl)c2cc(C=O)ccc21 | 109 |
| CN1CCN(CCCNc2ccc(Cl)cc2N)CC1 | 88 to 90 |
| N#Cc1cccc(NC(=O)c2ccn(-c3ccc(Cl)cc3)c2)c1N1CCC(N2CCOCC2)CC1 | 220 |
| Nc1sc2c(c1C(=O)c1ccc3c(c1)OCO3)CCN(C(=O)c1ccccc1)C2 | 211 to 212 |
| COc1c(C)c2c(c(O)c1C/C=C(/Cl)CCC(=O)O)C(=O)OC2 | 135 to 137 |
| CCOC(=O)c1cccc2c(=O)cc(-c3ccc(OCc4ccc5ccccc5c4)cc3)oc12 | 245 to 249 |
| CC(=O)Nc1ccc(C2=NC(C)(C)C(c3ccncc3)C2)cc1 (stereo not given) | 222 to 225 |
| COc1cc(OC)c(C(=O)CCCCCl)cc1N | 87 to 88 |
| COc1ccc(-c2coc3cc(OC)cc(OC)c3c2=O)c(OC)c1 | 202 to 204 |
| O=c1c2c(c1=O)N(CCCP(=O)(O)O)CCCN2 | 244 to 248 |
| Cc1cc(=S)cc(C)n1CCNC(=O)OC(C)(C)C | 175 to 178 |
| CCCCOc1ccc(NC(=O)c2cnc(C(=O)OC)c(OC)c2)cc1 | 138 to 141 |
| CCc1cccc(N(C(=O)CCC(=O)O)c2cc(C(C)(C)C)c(O)c(C(C)(C)C)c2)c1 | 150 to 152 |
| c1ccn(Nc2ccncc2)c1 | 150 |
| C=CCNC(=O)O[C@H]1C[C@@H](C(=O)OC)[C@]2(C)CC[C@H]3C(=O)O[C@H](c4ccoc4)C[C@]3(C)[C@H]2C1=O | 196 to 199 |
| O=C(NC(=O)c1c(Cl)cccc1Cl)Nc1noc(-c2ccc(C(F)(F)F)cc2)c1Cl | 237 to 238 |
| CCOC(=O)C1=C(C(F)(F)F)Nc2n[nH]cc2C1c1cccc2ccccc12 (stereo not given) | 119 to 120 |
| COc1cc(OC)nc(Cc2ccccc2N)n1 | 82 to 84 |
| CC(=O)OC(c1cc2n(n1)CCOC2=O)C1(Br)C(=O)N2C(C(=O)OCc3ccc([N+](=O)[O-])cc3)=CSC21 (stereo not given) | 107 to 110 |
| O=c1[nH]c2c(Cl)cc(Cl)cc2c(=O)n1CCCN1CC=C(c2ccc(Cl)cc2)CC1 | 197 to 199 |
| C/C(=C\c1ccc(OCC(=O)O)cc1)[N+](=O)[O-] | 149 to 151 |
